This passage reports IC50 results from PubChem BioAssay AID1645864 (Buhrlage Lab, Dana-Farber Cancer Institute and Novartis …, 2021).

Structures are written as SMILES. Active and inactive are the calls of the source.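 The calls were made as follows: active = maximal inhibition of USP17 at or above 30% in the confirmation dose-response, a value not among the printed readouts; inactive = the rest.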 Where only a bound is given, the exact number is not on record here.

Sequence of Ubiquitin carboxyl-terminal hydrolase 17-like protein 5 (Homo sapiens) (A8MUK1 whole entry, looked up): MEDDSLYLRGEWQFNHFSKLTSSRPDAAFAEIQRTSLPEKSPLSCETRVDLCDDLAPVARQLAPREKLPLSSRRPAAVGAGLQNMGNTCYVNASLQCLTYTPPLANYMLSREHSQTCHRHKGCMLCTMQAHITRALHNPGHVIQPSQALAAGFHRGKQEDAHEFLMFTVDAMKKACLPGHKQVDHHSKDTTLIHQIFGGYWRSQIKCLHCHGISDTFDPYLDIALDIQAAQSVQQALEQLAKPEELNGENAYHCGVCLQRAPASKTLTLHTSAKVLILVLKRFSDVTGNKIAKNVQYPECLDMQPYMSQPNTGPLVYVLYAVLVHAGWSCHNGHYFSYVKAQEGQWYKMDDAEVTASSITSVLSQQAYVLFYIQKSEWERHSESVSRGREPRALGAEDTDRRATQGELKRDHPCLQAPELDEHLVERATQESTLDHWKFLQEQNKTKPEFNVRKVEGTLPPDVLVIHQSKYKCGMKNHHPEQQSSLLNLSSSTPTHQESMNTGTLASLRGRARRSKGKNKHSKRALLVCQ

This test concerns the target Ubiquitin carboxyl-terminal hydrolase 17-like protein 5 (Homo sapiens) (UniProt A8MUK1). The test can be described thus: ubiquitin-specific protease 17 DUB inhibitors, concentration-effect assay, cell-free, verification of initial screening actives (AID 1645864). The note with it: purified USP17, ubiquitin-rhodamine cleavage fluorescence, 3 h.
For `CC1(C)Cc2c(sc3nc(Cc4ccccc4)nc(SCC(=O)Nc4ccccc4)c23)CO1`, the IC50 (commonly the point on the concentration scale where inhibition reaches its midpoint) was 2.35 µM.
Turning to `O=C(Nc1cccc(-c2nc3ccccc3[nH]2)c1)c1cc2ccccc2oc1=O`, the IC50 was 0.429 µM.
As to `CC1OC1C(=O)[C@]1(O)[C@H](C)[C@@H](O)[C@@]23O[C@@]2([C@H](O)c2c(O)cccc2C3=O)[C@H]1O` (some centres undefined), the IC50 was 17.9 µM.
Regarding `Cc1ccc(-c2noc(-c3nnc(SCC(=O)NC4CCCC4)n3C)n2)cc1`, the IC50 is 2.34 µM.
`C/C1=C/CC(O)/C=C/C(C)C(O)C(C)/C=C(\C)C(=O)c2c(O)c(C)cc3c2C(=O)C(Cl)=C(NC(=O)\C=C/C=C/C=C\C(C)C(O)CC1=O)C3=O` (centres undefined): the IC50 is 20.2 µM.
For `O=C(c1ccc(Cl)cc1)c1c[nH]cc1-c1c(F)cccc1Cl`, the IC50 is 36.3 µM.
With `O=C(Nc1ccc2c(c1)OCO2)c1cc(-c2cccnc2)n(-c2ccccc2)n1`, the IC50 is 47.6 µM.
On to `Cc1nc(-c2ccc3c(c2)nnn3CCN2CCOCC2)no1`, for which the IC50 was > 50 µM (inactive).
For `O=C(NCCCc1nc2ccccc2n1Cc1c(Cl)cccc1Cl)c1ccco1`, the IC50 is 36 µM.
With `CNC(=O)c1cc2nc(N(C)C)n(-c3ccccc3)c2s1`, the IC50 was > 50 µM (inactive).
Turning to `Cc1nc2sc(C(=O)Nc3ccccc3Br)c(N)c2c(C)c1C`, the IC50 is 1.12 µM.
The same measure for `O=c1c2cnc(N3CCOCC3)nc2ccn1CCc1ccccc1`: 18 µM; for `CN=C(N)NCCC/C=C/CCCC(C)CC(C)C1OC(=O)/C=C/C(C)C(O)CC(O)C(C)C(O)CCC(C)C(O)CC2(O)OC(CC(OC(=O)CC(=O)O)CC(O)CC(O)C(C)C(O)/C=C/C1C)CC(O)C2O` (centres undefined): > 50 µM (inactive).
On to `Cc1cccc(COc2ccc(C3SCC(=O)Nc4n[nH]c(C)c43)cc2)c1` (centres undefined), for which the half-maximal inhibitory concentration (IC50) was 20.6 µM.
As for `Cc1cccc(NC(=O)Nc2nnc(CC(=O)NCc3ccccc3)s2)c1`, the IC50 was 10.7 µM.
For the molecule `COC(=O)c1cc2c(ccn2C)n1CC(=O)NC1CC1`, the IC50 is > 50 µM (inactive).
`C=C(NC(=O)C(=C)NC(=O)c1csc(C2=N[C@@H]3c4csc(n4)[C@H]4NC(=O)c5csc(n5)[C@H]([C@](C)(O)[C@@H](C)O)NC(=O)[C@H]5CSC(=N5)/C(=C/C)NC(=O)C([C@@H](C)O)NC(=O)c5csc(n5)C3(CC2)NC(=O)[C@H](C)NC(=O)C(=C)NC(=O)[C@H](C)NC(=O)C([C@@H](C)CC)N[C@@H]2C=Cc3c(C(C)O)cc(nc3[C@H]2O)C(=O)OC4C)n1)C(N)=O` (some centres undefined): the IC50 is > 50 µM (inactive).
As to `Cc1ccc(Cn2cc(-c3noc(-c4ccncc4)n3)nn2)cc1`, the IC50 was 28.6 µM.
The same measure for `COc1ccc(NC(=O)C2CCN(c3cncnc3N(C)C)CC2)cc1OC`: > 50 µM (inactive); for `CC(C)(C)N=C1Nc2ncccc2NC12CCCN(C(=O)c1ccccc1)C2` (centres undefined): > 50 µM (inactive).
On to `COCCNC(=O)c1ccn(-c2ccc3ccc(-c4cnn(C)c4)cn23)n1`, for which the IC50 is > 50 µM (inactive).
For `COc1ccc(-c2cc(C(=O)N3CCN(c4ccc([N+](=O)[O-])cc4)CC3)[nH]n2)cc1` the value was > 50 µM (inactive); for `COc1ccc(C(C)NC(=O)c2cnc(-c3ccccc3)nc2-c2ccncc2)cc1` (centres undefined), > 50 µM (inactive); for `O=C(/C=C/c1c(F)cccc1Cl)N1CCc2ccccc2C1`, 34.7 µM.
For `CC1=C(c2ccc(C)c(C)c2)S(=O)(=O)NC1=NCC(=O)NCCc1ccc(C)cc1`, the IC50 was 46.1 µM.
As for `Cc1c(Cl)cccc1NC(=O)Cn1ccc2ccccc2c1=O`, the IC50 was 2.23 µM.
`Cc1c(C)n(-c2ccccc2)c2ncn(CC(=O)NC(C)c3ccccc3)c(=O)c12` (centres undefined): the IC50 was 22.5 µM.
As for `COc1c(O)cc(CC(=O)O)c(C(C)=O)c1O`, the IC50 is 11.1 µM.
Consider `Cc1nc(C(=O)N[C@@H](C)C(=O)NCc2ccc3c(c2)OCO3)cc2c1[nH]c1ccccc12`, for which the IC50 was 27.2 µM.
For the molecule `Cc1ccc2c(c1)c(=O)c(C(=O)c1ccccc1)cn2CC(=O)Nc1ccccc1`, the IC50 was 9.87 µM.
Turning to `CCN(CC(=O)Nc1cc(C)on1)c1cccc2ccccc12`, the IC50 was > 50 µM (inactive).
With `COc1ccc(NC(=O)C2Oc3ccc(C)cc3NC2=O)cc1Cl` (centres undefined), the IC50 is 14.5 µM.
On to `COc1ccc(CCNC(=O)CCCCn2c(=O)c3ccccc3n(Cc3cccc(Cl)c3)c2=O)cc1OC`, for which the half-maximal inhibitory concentration (IC50) was 35.3 µM.
For `Cc1ccccc1C(=O)c1ccc(C(=O)NC2CCCCCC2)[nH]1` the value was 2.96 µM; for `CCc1ccccc1NC(=O)COc1ccccc1-c1nnc(-c2ccccc2)o1`, 25 µM.
With `COc1ccc(C2CC(=O)Nc3ccc4ccccc4c32)c(OC)c1OC` (centres undefined), the IC50 is 40.4 µM.
On to `O=C(O)c1nccnc1C(=O)N1CCc2ccccc2C1`, for which the IC50 was > 50 µM (inactive).
In the case of `O=C(Cc1nnc2c(-c3nc(C4CC4)no3)cccn12)Nc1ccccc1`, the half-inhibitory concentration (IC50) was 20.1 µM.
`O=C(COc1cccc2c1CCN(Cc1cccnc1)C2=O)Nc1ccc2c(c1)OCCO2`: the IC50 is 35.2 µM.
`Cc1cc(C(=O)N2CCN(C3CCN(Cc4ccc(Cl)o4)CC3)C(=O)C2)c(C)o1`: the IC50 was > 50 µM (inactive).
In the case of `Cc1ccc(Nc2nc(Nc3cccc(Cl)c3)nc3nccnc23)cc1`, the IC50 is > 50 µM (inactive).
In the case of `CCN(CC)c1nc(F)c2c(c1F)S(=O)(=O)CCN2Cc1cccnc1`, the IC50 was > 50 µM (inactive).
Consider `Fc1cc(F)c2[nH]cc(-c3nnnn3-c3ccc4ccccc4c3)c2c1`, for which the half-inhibitory concentration (IC50) was 6.56 µM.
With `Cc1cc(C(=O)NC2(O)C(=O)c3ccccc3C2=O)n(C)n1`, the 50% inhibitory concentration (IC50) was 7.39 µM.
For `CC(C)c1nc2sc3c(NCc4ccco4)ncnc3c2c2c1CCC2` the value was > 50 µM (inactive); for `c1ccc2c(-c3nc(C4CC4)no3)nnc(NCc3ccncc3)c2c1`, 38.7 µM.
Turning to `O=C(COC(=O)Cn1cnc2ccccc21)Nc1ccc2c(c1)OCCO2`, the IC50 is > 50 µM (inactive).
The same measure for `O=C1Oc2nc3ccccc3cc2CN1Cc1ccco1`: 23.9 µM; for `CN1CCN(C(=O)c2cc(-c3ccn(-c4ccccc4)n3)n3ccccc23)CC1`: > 50 µM (inactive).
The same measure for `CCCN1C=NS(=O)(=O)c2cc(C(=O)Nc3ccc(OC)c(Cl)c3)ccc21`: 40.9 µM; for `CN[C@H]1CC2(CCN(C(=O)CCCn3cccn3)CC2)OC[C@]1(C)O`: > 50 µM (inactive); for `COc1ccc(NC(=O)CC(=O)c2ccc([N+](=O)[O-])cc2)cc1S(=O)(=O)Nc1ccc(Cl)cc1`: 24.5 µM.
In the case of `CC(C)C(=O)Nc1ccc(N2CCN(Cc3ccc(F)cc3)C2=O)nc1`, the IC50 was 26.4 µM.
The same measure for `CNc1nc2c(c(=O)n1Cc1ccccc1)CN(C(=O)c1ccc(CN)cc1)CC2`: 28.3 µM; for `NS(=O)(=O)c1ccc(NC(=O)Cn2cnc3cc([N+](=O)[O-])ccc3c2=O)cc1`: 18 µM.
As to `Cc1sc2ncnc(OCc3ccc(F)cc3Cl)c2c1C`, the IC50 is > 50 µM (inactive).
On to `Cc1cc(C)c(NC(=O)CSc2nc3nccnc3c(=O)n2Cc2ccccc2Cl)c(C)c1`, for which the half-maximal inhibitory concentration (IC50) is 4.02 µM.
In the case of `Cc1cccc(C)c1NC(=O)Cn1c(=O)n(CCCCC(=O)NCc2ccc3c(c2)OCO3)c(=O)c2ccccc21`, the IC50 was 2.23 µM.
As to `Cc1nc(-c2ccc(NC(=O)N3CCN(c4ccccn4)CC3)cc2)no1`, the IC50 is > 50 µM (inactive).
`CO[C@H]1[C@@H](O)[C@H](C)O[C@H](O[C@H]2[C@H](Oc3cccc4c(O)c5c(=O)oc6ccc(C)c7c(=O)oc(c34)c5c67)O[C@H](C)[C@H](O)[C@@H]2O)[C@@H]1O`: the IC50 was > 50 µM (inactive).
Turning to `Clc1cccc(N2CCN(c3ncnc4nc[nH]c34)CC2)c1`, the IC50 was > 50 µM (inactive).
In the case of `Cc1ccc(C)c(S(=O)(=O)N2CCN(c3ccc4nnc(-c5ccco5)n4n3)CC2)c1`, the IC50 is 22.6 µM.
For `CC1=C2C(=NCCN1)C(=O)N(c1ccccc1)C2c1cccnc1` (centres undefined), the IC50 is > 50 µM (inactive).
On to `O=C1N(Cc2ccc(F)cc2)CCN1c1ccc2c(c1)CCC2`, for which the IC50 is > 50 µM (inactive).
Take `COc1cccc(-n2cnc3cc(C(=O)NC4CC4)ccc3c2=O)c1`: the IC50 was 15 µM.
With `c1ccc2c(c1)CCc1c-2nc2ccccc2c1N1CCOCC1`, the IC50 was > 50 µM (inactive).
For the molecule `COc1cccc(NC(=O)C2CCC(CNS(=O)(=O)c3ccc4c(c3)C(C)(C)C(=O)N4C)CC2)c1` (centres undefined), the IC50 is > 50 µM (inactive).
With `CCn1c(CNc2ccc(Cl)cc2)nnc1SCC(=O)Nc1ccccc1`, the IC50 is > 50 µM (inactive).
On to `O=C(Nc1cc(Cl)cc(Cl)c1)c1csnn1`, for which the IC50 was 22.4 µM.
As to `Cc1cc(C)n(-c2ccc(C(=O)NCc3ccc(F)cc3)cn2)n1`, the IC50 is 33.9 µM.
For the molecule `CCOc1ccc(NS(=O)(=O)c2ccc(NC(=O)Nc3ccccc3)cc2)cc1`, the half-maximal inhibitory concentration (IC50) is 17.9 µM.
In the case of `CCn1cc(-c2nc(-c3ccccn3)no2)c(=O)c2cc(F)ccc21`, the IC50 was 32.5 µM.
For the molecule `c1ccc(-c2nc(-c3nnn(-c4ccccc4)c3-c3ccncc3)no2)cc1`, the IC50 was 3.91 µM.
For `COc1ccccc1C(=O)N1CCc2[nH]c3ccc(F)cc3c2C1`, the IC50 is > 50 µM (inactive).
With `COc1cccc2cc(C(=O)Nc3nc(-c4ccncc4)cs3)oc12`, the IC50 was 0.17 µM.
For `Cc1ccc(C(=O)NCc2ccc(C(=O)Nc3ccc(C)c(C)c3)o2)cc1` the value was 24.1 µM.
The same measure for `CC(C)(C)C(=O)[C@@H]1[C@@H](C(=O)c2ccc3c(c2)OCO3)[C@@]2(C(=O)Nc3ccccc32)[C@H]2c3ccccc3C=CN12`: 31.3 µM; for `COc1ccc(-c2cc3nc([C@H](C)NC(=O)Cc4cccc(F)c4)nn3cn2)cc1`: 3.75 µM; for `Cc1ccc(S(=O)(=O)N(C)C)cc1NC(=O)Cc1ccc(Cl)c(Cl)c1`: > 50 µM (inactive).
Take `CSc1ccc(CNC(=O)CC2CCN(S(=O)(=O)c3ccc(C)cc3)CC2)cc1`: the IC50 is 23.7 µM.
For the molecule `CC(C)Cn1cc(OC(=O)c2ccc(F)cc2)c2c1nc(-c1ccc(F)cc1)n1c3ccccc3nc21`, the IC50 was > 50 µM (inactive).
For the molecule `Cc1nn(-c2ccc([N+](=O)[O-])cc2)c(C)c1-c1nc2ccccc2[nH]1`, the IC50 was 33 µM.
Take `CCOc1ccccc1C(=O)Nc1ccc2c(c1)Sc1ncccc1C(=O)N2C`: the IC50 was > 50 µM (inactive).
Consider `CC(C)NC(=O)CN1C(=O)CC(C)Sc2ccc(S(=O)(=O)N3CCCCC3)cc21` (centres undefined), for which the IC50 is 25.2 µM.
